In US20220056012A1, “AMORPHOUS FORM OF A MALT1 INHIBITOR AND FORMULATIONS THEREOF” (Janssen Pharmaceutica NV, priority 2020, published 2022):
One block for each compound: values may come before it.

Columns and labels:
Format in all cases: physicochemical
[1] = 2-phase (SGF/FaSSIF) miniaturized dissolution of films; conditions: SGF-FaSSIF, 37° C., films with 200 μg Compound A
Procedure: In vitro, 2-phase (SGF/FaSSIF) miniaturized dissolution was performed, where the amount of dissolved compound A was monitored in function of time. Before starting the dissolution assay, the films were stored for one day at room temperature. By doing so, most of the residual solvent had evaporated. Actual dissolution experiments were performed in 96 1 mL glass vials using the Hamilton STAR plus liquid handling platform for both sampling and sample preparation. Before adding the dissolution media to the films, an equilibration time of approximately 60 minutes was needed to preheat the media to 37° C. After equilibration, 300 μL of preheated SGF (37° C., pH 1.3) was added to the amorphous solid dispersions. After 15 minutes of incubation in SGF, 600 μL of preheated concentrated FaSSIF (37° C., pH 10.5) was added to the samples. […] At predetermined time intervals, aliquots were withdrawn from the dissolution media and filtered through a 0.45 μm GHP membrane filter. Subsequently, the filtered solutions were quantitatively diluted (10×) with N-methylpyrrolidone (NMP) to prevent possible precipitation. The amount of dissolved compound A was determined by UPLC. Films were incubated at 37° C. throughout the entire assay. Experiments were performed in duplicate.

[2] = Crystalline conversion of isolated amorphous Compound A on storage
[3] = Glass transition temperature (Tg) by DSC, Tg vs % RH; conditions: amorphous Compound A without polymer
Procedure: The Tg vs RH results for HPMCAS-LG amorphous SDDs (FIG. 18 and Table 10) show the Tg's range from 111 to 119° C. under dry conditions and are depressed down to 52 to 59° C. at 75% RH. Both dry and wet Tg increase with increased drug loading.

[4] = Stability of amorphous formulations by XRD at normal and accelerated conditions
Procedure: Stability of the prepared formulations of Compound A was measured by XRD at normal and accelerated conditions, showing that all the prepared formulations of the compound, be it alone or combined with a polymer, are amorphous.

[5] = Dissolution in 900 mL FaSSIF medium at pH 6.5 (FIG. 20); conditions: pH 6.5, capsules in blend
Procedure: FIG. 20: Dissolution rates of different compositions in 900 mL FaSSIF medium at pH 6.5. The different compositions are: 25 mg ASD capsule HPMC AS MG 1/3 in blend; 50 mg ASD capsule HPMC AS MG 1/1 in blend; 50 mg ASD capsule EL100-55 1/1 in blend; 50 mg LFHG PEG1500 (liquid filled) capsule; 100 mg capsule amorphous API in blend; 25 mg ASD capsule EL100-55 1/3 in blend; and 100 mg capsule crystalline API in blend.

[6] = Hygroscopicity of crystalline form

initial release, concentration [1]: 60 to 80 µg/mL
solid state after storage (stability DSC data) ([2]; 6 MOS at 40°/75% RH, open-dish): still amorphous
crystalline conversion after exposure ([2]; 10% RH, 50° C., 28 days): no crystalline conversion
crystalline conversion after exposure ([2]; 75% RH, 40° C., open condition, 6 months): no crystalline conversion
crystalline conversion after exposure ([2]; 75% RH, 50° C., 28 days): no crystalline conversion
crystalline conversion after exposure ([2]; 75% RH, 50° C., closed condition, 6 months): no crystalline conversion
glass transition temperature [3]: 133 °C
glass transition temperature ([3]; listed as spray dried Compound A): 132 °C
XRD result ([4]; 40° C. closed 1M): amorph.
XRD result ([4]; 40° C. closed 2M): amorph.
XRD result ([4]; 40° C. closed 6M): amorph.
XRD result ([4]; 40° C./75% RH open 6M): amorph.
XRD result ([4]; 40° C/75% RH open 1M): amorph.
XRD result ([4]; 40° C/75% RH open 2M): amorph.
XRD result ([4]; 50° C. closed 1M): amorph.
XRD result ([4]; 50° C. closed 2M): amorph.
XRD result ([4]; 50° C. closed 6M): amorph.
XRD result ([4]; RT closed 1M): amorph.
XRD result ([4]; RT closed 2M): amorph.
XRD result ([4]; RT closed 6M): amorph.
XRD result ([4]; RT/56% RH open 1M): amorph.
XRD result ([4]; RT/56% RH open 2M): amorph.
XRD result ([4]; RT/56% RH open 6M): amorph.
XRD result ([4]; T0): amorph.
Compound: O=C(Nc1ccnc(C(F)(F)F)c1)c1cnn(-c2cccc3c(=O)[nH]ccc23)c1C(F)(F)F [amorphous form of Compound A, 1-(1-oxo-1,2-dihydroisoquinolin-5-yl)-5-(trifluoromethyl)-N-[2-(trifluoromethyl)pyridin-4-yl]-1H-pyrazole-4-carboxamide]

dissolution rate [5]: dropped considerably
hygroscopicity [6]: hygroscopic behavior
Compound: O=C(Nc1ccnc(C(F)(F)F)c1)c1cnn(-c2cccc3c(=O)[nH]ccc23)c1C(F)(F)F [Form I, 1-(1-oxo-1,2-dihydroisoquinolin-5-yl)-5-(trifluoromethyl)-N-[2-(trifluoromethyl)pyridin-4-yl]-1H-pyrazole-4-carboxamide]
